Two compounds from US7592477B2, “Substituted methylene amide derivatives as modulators of protein tyrosine phosphatases (PTPs)” (Laboratoires Serono SA, priority 2002, dated 2009) can be followed below.

One assay deals with T1, GLEPP-1 (Homo sapiens, UniProt Q16827).
T1 construct: using the catalytic core of a human recombinant PTP as the enzyme
T1 sequence (Q16827 938-1195 limits assumed): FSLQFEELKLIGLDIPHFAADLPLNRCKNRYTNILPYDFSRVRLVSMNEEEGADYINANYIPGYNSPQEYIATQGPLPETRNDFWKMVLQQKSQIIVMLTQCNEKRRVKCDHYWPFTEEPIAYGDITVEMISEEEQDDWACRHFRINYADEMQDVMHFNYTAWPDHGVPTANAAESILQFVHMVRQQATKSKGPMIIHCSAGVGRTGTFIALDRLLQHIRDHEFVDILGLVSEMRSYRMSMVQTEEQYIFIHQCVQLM
The experiment in a line: PTP Enzyme Assay (DiFMUP), GLEPP-1. In kind it is biochemical. The following applies: 30 μM DiFMUP; read-out: IC50 value in respect of GLEPP-1. How it is done:
(§1) The PTP Enzyme Assay aims at determining the extent of inhibition of PTPs, e.g. of PTP1B, SHP-1, SHP-2 or GLEPP-1 in the presence of a test compound of formula (I). The inhibition is illustrated by IC50 values which denote the concentration of test compound necessary to achieve an inhibition of 50% of said PTP's using the following concentration of the PTP substrate DiFMUP: • 5 μM DiFMUP for PTP1B; • 20 […] DiFMUP for SHP-1 and SHP-2; • 30 μM DiFMUP for GLEPP-1. a) PTPs Cloning […]
(§2) Assays were performed in a 96 well plate format, using the catalytic core of a human recombinant PTP as the enzyme and 6,8-DiFluoro-4-MethylUmbelliferyl Phosphate (DiFMUP, Molecular Probes, D-6567) as a substrate. […] The reaction ran for 30 minutes at room temperature before reading the fluorescence intensity (integral or intensity) on a Perkin-Elmer Victor 2 spectrofluorimeter (excitation of 6,8-difluoro-7-hydroxy coumarin is at 355 nm, the emission at 460 nm, for 0.1 s). The percentage of inhibition is determined by measuring the relative fluorescence ion absence of a test compound (PTP inhibitor), i.e. with the solvent alone (5% DMSO). The IC50 values for inhibition were determined in triplicates.

The next assay addresses T2, SHP-1 (Homo sapiens, UniProt P29350).
T2 construct: using the catalytic core of a human recombinant PTP as the enzyme
T2 sequence (P29350 244-515 limits assumed): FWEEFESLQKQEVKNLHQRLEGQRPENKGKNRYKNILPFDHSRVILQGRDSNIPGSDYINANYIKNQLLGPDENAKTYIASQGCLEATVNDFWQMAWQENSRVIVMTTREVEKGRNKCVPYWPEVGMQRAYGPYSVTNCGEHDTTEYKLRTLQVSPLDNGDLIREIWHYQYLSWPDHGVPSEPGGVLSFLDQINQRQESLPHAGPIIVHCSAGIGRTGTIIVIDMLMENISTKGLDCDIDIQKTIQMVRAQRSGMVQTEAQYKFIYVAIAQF
Description: PTP Enzyme Assay (DiFMUP), SHP-1. As to conditions: 20 λM DiFMUP; read-out: IC50 value in respect of SHP-1. In kind it is biochemical. How it is done:
as §1, §2

A further assay addresses T3, SHP-2 (Homo sapiens, UniProt Q06124).
T3 construct: using the catalytic core of a human recombinant PTP as the enzyme
T3 sequence (Q06124 247-517 limits assumed): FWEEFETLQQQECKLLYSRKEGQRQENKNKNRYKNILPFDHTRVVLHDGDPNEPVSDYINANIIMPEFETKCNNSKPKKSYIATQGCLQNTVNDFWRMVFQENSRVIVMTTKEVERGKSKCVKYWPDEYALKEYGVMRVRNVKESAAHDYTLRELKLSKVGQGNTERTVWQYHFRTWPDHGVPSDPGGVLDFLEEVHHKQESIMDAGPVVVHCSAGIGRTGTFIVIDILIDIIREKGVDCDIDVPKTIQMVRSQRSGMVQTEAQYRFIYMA
Description: PTP Enzyme Assay (DiFMUP), SHP-2. Format: biochemical. As to conditions: 20 λM DiFMUP; read-out: IC50 value in respect of SHP-2. Here is the method: as §1, §2

A further assay concerns the target T4, PTP1B (Homo sapiens, UniProt P18031).
T4 construct: The cloning and expression of the catalytic domain of PTPIB, may be performed as described in J. Biol. Chem. 2000; made in house
T4 sequence (P18031 3-277 limits assumed): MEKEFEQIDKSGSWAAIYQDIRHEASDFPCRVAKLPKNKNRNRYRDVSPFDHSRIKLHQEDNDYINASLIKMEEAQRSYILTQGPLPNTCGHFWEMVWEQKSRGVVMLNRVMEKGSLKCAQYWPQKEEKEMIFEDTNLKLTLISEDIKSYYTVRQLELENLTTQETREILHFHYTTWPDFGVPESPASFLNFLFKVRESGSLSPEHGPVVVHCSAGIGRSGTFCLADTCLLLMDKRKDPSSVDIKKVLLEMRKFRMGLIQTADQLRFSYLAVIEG
The experiment in a line: PTP Enzyme Assay (DiFMUP), PTP1B. As to conditions: 5 μM DiFMUP; read-out: IC50 value in respect of PTP1B. In kind it is biochemical. Here is the method:
The PTP Enzyme Assay aims at determining the extent of inhibition of PTPs, e.g. of PTP1B, SHP-1, SHP-2 or GLEPP-1 in the presence of a test compound of formula (I). The inhibition is illustrated by IC50 values which denote the concentration of test compound necessary to achieve an inhibition of 50% of said PTP's using the following concentration of the PTP substrate DiFMUP: • 5 μM DiFMUP for PTP1B; • 20 […] DiFMUP for SHP-1 and SHP-2; • 30 μM DiFMUP for GLEPP-1. a) PTPs Cloning
The cloning and expression of the catalytic domain of PTPIB, may be performed as described in J. Biol. Chem. 2000, 275(13), pp 9792-9796. […]
as §2

For another assay, the system named is db/db mice. The experiment in a line: In vivo assay in db/db mice (postprandial glycemia). As to conditions: 4 hrs after drug administration. How it is done:
The following assay aims at determining the anti-diabetic effect of the test compounds of formula (I) in a model of postprandial glycemia in db/db mice, in vivo.
A total of 24 db/db mice (about 8-9 weeks; obtained from IFFACREDO, l'Arbreste, France) were fasted during 20 hours.
4 groups, each consisting of 6 animals were formed:
Group 1: The animals were administered (per os) a dose of […] of vehicle.
Group 2: The animals were administered (per os) a dose of 20 mg/kg of the test compound according to formula (I).
Group 3: The animals were administered (per os) a dose of 100 mg/kg of the test compound according to formula (I).
Group 4: The animals were administered (per os) a dose of 200 mg/kg of the test compound according to formula (I).
After oral administration of the compounds of formula (I) solubilized or suspended in CarboxyMethylCellulose (0.5%), Tween 20 (0.25%) and water as vehicle, the animals had access to commercial food (D04, UAR, Villemoisson/Orge, France) ad libitum. The diabetic state of the mice was verified by determining the blood glucose level before drug administration. Blood glucose and serum insulin levels were then determined 4 hrs after drug administration.
The determination of the blood glucose level was performed using a glucometer (Precision Q.I.D., Medisense, Abbot, ref. 212.62.31).
The determination of the Insulin level was performed using an ELISA kit (Crystal CHEM, Ref. INSK R020).
Changes in blood glucose and serum insulin of drug treated mice were expressed as a percentage of control (group 1: vehicle treated mice).

The mark [1] stands for this setting: Group 2: db/db mice, per os 20 mg/kg.
[2] abbreviates: Group 3: db/db mice, per os 100 mg/kg.
Setting [3] is: Group 4: db/db mice, per os 200 mg/kg.

As usually defined, the IC50 is the concentration that gives 50% inhibition. `CCCCCCCCCCCCCCCNC(=O)c1ccc(CN(Cc2ccc(C(F)(F)F)cc2)C(=O)C(=O)O)cc1` [Example 4, oxo{{4-[(pentadecylamino)carbonyl]benzyl}[4-(trifluoromethyl)benzyl]amino}acetic acid]: the IC50 amounted to 500 nM at GLEPP-1, 1000 nM at SHP-1 and 1400 nM on SHP-2.

Take `CCCCCCCCCCCCNC(=O)c1ccc(CN(Cc2ccc(C(F)(F)F)cc2)C(=O)C(=O)O)cc1` [Example 10, {{4-[(dodecylamino)carbonyl]benzyl}[4-(trifluoromethyl)benzyl]amino}(oxo)acetic acid]: the IC50 at PTP1B was 2220 nM; on GLEPP-1 it was 1400 nM; on SHP-1, 2400 nM; on SHP-2, 2700 nM. For the same compound, the “Decrease in blood glucose” value is listed as 17 percentage of control in the assay with db/db mice (setting [1]), 42 percentage of control in the assay with db/db mice (setting [2]) and 48 percentage of control in the assay on db/db mice (setting [3]). Also, the “Decrease in serum insulin” value in the assay on db/db mice (setting [1]) is recorded as −2 percentage of control; in the assay on db/db mice (setting [2]) it was 66 percentage of control; in the assay on db/db mice (setting [3]), 89 percentage of control.
